Test results reported in US20250345387A1, “CORONAVIRUS THERAPEUTICS AND TREATMENT METHODS” (priority 2020, published 2025).
Entries after “also recorded” stand apart in the source; their conditions may differ. Where no end group is shown, it is not given here.

Legend:
[1] = system: histamine-induced vascular leakage; assay: Cutaneous histamine challenge, Evans blue dye extravasation; format: in vivo, male FVB mice; details: prophylactic IP dose one hour prior to cutaneous histamine challenge
Description: 10-week old male FVB mice were purchased from Jackson Laboratories. Mice were housed in a Vivarium on a standard light:dark cycle and were given free access to food and water. On day 0 mice were anesthetized with isoflurane and the entire dorsal area was shaved with an electric shaver. Residual hair was removed via application of depilatory cream. Residual cream was removed with sterile gauze and water. […] Immediately following Evans blue dye administration, and while still under anesthesia, a single PBS injection (dorsal, intradermal, 50 ul) and three equally spaced histamine injections (dorsal, intradermal, 1.25 ug contained in 50 ul) were applied. Once the intradermal injections were complete, the mice were removed from anesthesia and were placed back into their housing cages for 25 minutes.
Cardiac transperfusion After 25 minutes of exposure to histamine the mice were placed under anesthesia with an appropriate volume of 2.5% avertin (100 ul/10 g body weight via intraperitoneal injection). Once a deep plane of anesthesia was produced the mice were place and secured in a supine position, the chest was surgically opened, the heart was exposed and a catheter terminating in a 23 gauge needle was inserted into the left ventricle. Once the catheter was securely in place, a cut in the right atria was performed and 25 ml of cold PBS was delivered, via the catheter at 100 mmHg to flush out all intravascular Evans blue dye. Once a mouse was effectively perfused the dorsal skin was surgically removed. Four, 12 mm skin biopsies were collected (1PBS, 3 histamine) for each mouse using a standardized skin punch. In all cases, the biopsy that received PBS served as a baseline control for that individual mouse.
Quantification of Evans blue dye extravassation Skin biopsies were placed in labelled tubes and placed in a 60 degree Celsius oven for 16 hrs to removed all moisture. […] An Evans blue dye standard curve encompassing high and low experimental data points was constructed such that the amount of Evans blue dye extravassation (ug/g of skin) could be calculated.

[2] = system: Influenza A virus HKx31 (H3N2); format: in vivo, C57BL/6J mice
recombinant human IgG Fc = target: T1, recombinant human IgG Fc (Homo sapiens, UniProt P01857); assay: Tryptophan fluorescence spectroscopy binding to human IgG Fc (negative control); details: increasing ligand concentrations
T1 construct: purchased R&D Systems
Description: Ligand and receptor interaction. […] Data was compiled using SoftMax and analyzed using Prism.

Tie2 receptor [3] = target: T2, Tie2 receptor (Mus musculus, UniProt Q02858); assay: Tie2 phosphorylation ELISA in primary mouse lung microvascular endothelial cells (MLMVEC); format: cell-based
T2 construct: host or cells: primary mouse lung microvascular endothelial cells (MLMVEC)
T2 sequence (Q02858 23-1122): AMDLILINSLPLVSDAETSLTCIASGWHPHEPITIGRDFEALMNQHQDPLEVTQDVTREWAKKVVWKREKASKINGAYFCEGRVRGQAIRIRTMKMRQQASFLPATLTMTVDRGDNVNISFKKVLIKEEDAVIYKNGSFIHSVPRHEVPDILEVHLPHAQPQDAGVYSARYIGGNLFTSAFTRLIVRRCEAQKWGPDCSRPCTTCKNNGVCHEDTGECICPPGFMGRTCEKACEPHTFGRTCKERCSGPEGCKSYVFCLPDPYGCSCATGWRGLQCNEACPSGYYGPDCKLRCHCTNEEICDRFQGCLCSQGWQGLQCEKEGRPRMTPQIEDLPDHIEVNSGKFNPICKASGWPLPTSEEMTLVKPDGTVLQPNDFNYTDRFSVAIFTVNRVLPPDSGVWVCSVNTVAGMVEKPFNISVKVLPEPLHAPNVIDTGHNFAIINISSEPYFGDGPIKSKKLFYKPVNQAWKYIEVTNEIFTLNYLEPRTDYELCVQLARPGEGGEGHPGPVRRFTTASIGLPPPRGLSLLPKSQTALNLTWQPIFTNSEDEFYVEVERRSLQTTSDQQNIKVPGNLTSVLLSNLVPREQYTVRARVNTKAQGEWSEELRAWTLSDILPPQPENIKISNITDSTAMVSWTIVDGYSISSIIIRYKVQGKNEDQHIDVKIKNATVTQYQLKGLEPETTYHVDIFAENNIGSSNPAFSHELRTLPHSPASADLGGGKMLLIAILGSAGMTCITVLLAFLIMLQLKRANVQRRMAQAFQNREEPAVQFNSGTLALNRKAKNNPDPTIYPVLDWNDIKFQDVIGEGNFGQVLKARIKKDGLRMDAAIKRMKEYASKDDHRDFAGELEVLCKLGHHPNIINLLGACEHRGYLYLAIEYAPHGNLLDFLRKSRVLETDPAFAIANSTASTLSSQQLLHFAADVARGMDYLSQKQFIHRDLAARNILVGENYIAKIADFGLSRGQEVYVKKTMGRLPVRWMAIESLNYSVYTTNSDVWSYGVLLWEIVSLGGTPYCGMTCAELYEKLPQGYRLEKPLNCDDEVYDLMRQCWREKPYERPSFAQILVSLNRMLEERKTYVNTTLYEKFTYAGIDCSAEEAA
Experimental: Primary mouse lung endothelial cells (Cell Biologics) were seeded on 100 mm tissue culture plates in complete endothelial basal media (EBM)(Lonza) supplemented with ‘EGM single quots’ (Lonza). […] Following the 15 minute stimulation, cells were placed on ice and washed twice in ice cold PBS. Cell lysates were prepared for use in IC12 lysis buffer (1% NP-40, 20 mM Tris (pH 8.0), 137 mM NaCl, 10% Glycerol, 2 mM EDTA, 1 mM activated sodium orthovanadate). BCA protein concentration kit was used to measure protein concentration of each lysate as per manufacturer's instructions (Thermo Scientific). Samples were subjected to ELISAs that measured phosphorylated Tie2 and total Tie2 levels according to the manufacturer's protocol (mouse Tie2, R&D Systems). 50 μg or 5 μg of protein from each sample was loaded in triplicate for phosphorylated Tie2 and total Tie2 readings respectively. Phosphorylated Tie2:total Tie2 ratios were determined for each sample. The level of Tie2 phosphorylation for all treatment groups was then normalized to that of the no treatment group (NT, complete EBM only) in each experiment.

[4] = Pharmacokinetic analysis after intravenous bolus in rats (plasma ELISA); format: in vivo, male Sprague Dawley rats
Experimental: Indicated amounts (ug/kg) of parental Vasculotide and MPA-Br were intravenously administered via bolus injection to male Sprague Dawley rats. […] The 120 ug/kg dose provided the greatest sensitivity of detection in these studies and as such, PK measures presented pertain to this particular dose level. […] MPA-Br PK was evaluated in a multi-dose (MD) intravenous setting at 120 ug/kg once every 24 hours for three consecutive days.

Tie2 receptor [5] = target: T3, Tie2 receptor (Homo sapiens, UniProt Q02763); assay: Tie2 phosphorylation ELISA in HUVEC; format: cell-based; details: 15 minute stimulation
T3 construct: endogenous in cells; host or cells: HUVEC; HMVEC-tert (human dermal microvascular endothelial cells immortalized with telomerase)
T3 sequence (Q02763 23-1124): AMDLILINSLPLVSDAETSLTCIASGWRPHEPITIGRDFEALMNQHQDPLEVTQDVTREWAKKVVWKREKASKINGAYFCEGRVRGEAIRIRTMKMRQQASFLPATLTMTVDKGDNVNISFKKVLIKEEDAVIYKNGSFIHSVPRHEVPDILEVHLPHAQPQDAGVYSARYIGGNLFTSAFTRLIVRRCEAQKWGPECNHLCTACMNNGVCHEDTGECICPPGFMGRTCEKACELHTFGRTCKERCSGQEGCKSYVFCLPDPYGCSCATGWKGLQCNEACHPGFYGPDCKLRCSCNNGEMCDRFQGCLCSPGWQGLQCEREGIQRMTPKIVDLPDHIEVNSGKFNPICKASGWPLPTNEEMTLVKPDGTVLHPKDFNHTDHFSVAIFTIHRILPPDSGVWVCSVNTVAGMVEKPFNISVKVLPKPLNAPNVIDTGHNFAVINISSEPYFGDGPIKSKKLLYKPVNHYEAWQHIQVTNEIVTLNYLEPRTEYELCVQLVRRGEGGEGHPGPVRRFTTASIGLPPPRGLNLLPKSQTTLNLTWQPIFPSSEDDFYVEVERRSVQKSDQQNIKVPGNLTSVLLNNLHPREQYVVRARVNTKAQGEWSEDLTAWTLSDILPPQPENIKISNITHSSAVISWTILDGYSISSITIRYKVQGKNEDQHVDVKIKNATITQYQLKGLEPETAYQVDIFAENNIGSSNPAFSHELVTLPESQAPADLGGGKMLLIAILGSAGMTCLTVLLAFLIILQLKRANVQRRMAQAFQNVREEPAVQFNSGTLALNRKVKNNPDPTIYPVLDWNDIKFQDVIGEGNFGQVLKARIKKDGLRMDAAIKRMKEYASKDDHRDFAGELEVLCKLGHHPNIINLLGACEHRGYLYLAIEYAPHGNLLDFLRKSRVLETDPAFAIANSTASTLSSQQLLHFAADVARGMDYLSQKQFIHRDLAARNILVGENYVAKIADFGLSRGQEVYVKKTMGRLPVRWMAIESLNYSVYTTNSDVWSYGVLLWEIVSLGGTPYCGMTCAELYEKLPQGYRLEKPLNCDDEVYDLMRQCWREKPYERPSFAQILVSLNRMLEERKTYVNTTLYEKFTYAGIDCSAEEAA

MAPK (Erk2) = assay: MAPK phosphorylation ELISA in HUVEC; format: cell-based, human; details: HUVEC stimulation
Experimental: HUVECs were cultured as above. Lyates were prepared in (1 mM EDTA, 0.5% Triton X-100, 6M urea, 5 mM NaF, 100 uM PMSF, 25 mM sodium pyrophosphate, 1 mM sodium orthovanadate, pH 7.2-7.4, 1× cOmplete™ mini EDTA-free protease inhibitor). BCA protein concentration kit was used to measure protein concentration of each lysate as per manufacturer's instructions (Thermo Scientific). Samples were subjected to ELISAs that measured phosphorylated MAPK and total MAPK levels according to the manufacturer's protocol (R&D Systems). 20 μg or 10 μg of protein from each sample was loaded in duplicate for phosphorylated MAPK and total MAPK readings respectively. Phosphorylated MAPK:total MAPK ratios were determined for each sample. The level of MAPK phosphorylation for all treatment groups were then normalized to that of the no treatment group (NT, EBM only) in each experiment.

HUVEC [6] = assay: Thrombin- and TNF-α-induced HUVEC destabilisation, impedance (xCELLigence RTCA); format: cell-based, human; details: for total AUC normalised to vehicle control treatment: equivalent to CI for vehicle control cells
HUVEC [7] = assay: COVID-19 patient serum induced HUVEC integrity destabilization, impedance (xCELLigence RTCA); format: cell-based, human
[8] = day 6, MPA-Br 200 ng/day vs parental Vasculotide 500 ng
[9] = 120 ug/kg intravenous bolus, parental Vasculotide vs MPA-Br

In the case of “MPA-Br: T7 peptide linked via 3-mercaptopropionic acid to a bromoacetimide-activated 10K PEG tetramer through a linear sulfane moiety (HHHRHSF; not fully specified (N-terminus); also: linked via 3-mercaptopropionic acid to bromoacetimide-activated 10K PEG tetramer (sulfane), site not given here)”, the “vascular leakage (extravassation of Evans blue dye) vs vehicle treated mice” value [1] is reported as “significantly less vascular leakage”, the arterial oxygenation [2, 8] is reported as “superiority to parental Vasculotide” and the “protection from wasting (fraction of initial body weight)” value [2, 8] is reported as “superiority to parental Vasculotide”. For the same substance, the activity score ([2]; mouse, in vivo) was “significantly improved”, the “all study endpoints compared to parental Vasculotide” value ([2]; mouse, in vivo) was “performed equal, or better than parental Vasculotide” and the “lung oxygenation (SpO2)” value ([2]; mouse, in vivo) was “significantly improved”. For the same substance, the “thermal regulation (body temperature)” value ([2]; mouse, in vivo) was “significantly improved”, the “overall survival of infected mice” value ([2]; mouse, in vivo, ip) was “significantly improved overall survival” and the “binding to recombinant human IgG Fc (fluorescence intensity)” value (recombinant human IgG Fc) was “no dose dependent increase in fluorescence intensity; also recorded: No saturation of binding”. For the same substance, the “fold lower concentration for statistically significant Tie2 activation vs parental Vasculotide” value (Tie2 receptor [3]) was 10 fold, the “drug accumulation, multi-dose (MD) PK vs single dose” value ([4]; 120 ug/kg IV once every 24 hours for three consecutive days) was “no drug accumulation” and the clearance rate [4, 9] was “similar”. The volume of distribution [4, 9] was “similar”, the “doses significantly activating Tie2 (pTie2/total Tie2 vs no treatment)” value (Tie2 receptor [5]) was 10-100 ng and the “activation of MAPK (phosphorylated MAPK:total MAPK)” value (MAPK (Erk2)) was “downstream activation of MAPK”. The “normalized CI overtime compared to untreated HUVEC” value (HUVEC [6]; TNF-a challenge (0.5 ng/mL), MPA-Br 5 ng/mL) was “significant increase in normalized CI”, the “total AUC normalised to vehicle control treatment” value (shortened to “total AUC normalised”) (HUVEC [6]; TNF-a challenged cells, MPA-Br 5 ng/mL) was “statistically significant increase in normalized CI” and the “normalized CI overtime compared to untreated HUVEC” value (HUVEC [6]; thrombin challenge (0.25 ng/mL), MPA-Br 0.5 to 5 ng/mL) was “significant increase in normalized CI”. For the same substance, the “total AUC normalised” value (HUVEC [6]; thrombin challenged cells, MPA-Br 0.5 to 5 ng/mL) was “statistically significant increase in normalized CI”, the “CI over time after COVID-19 serum challenge” value (HUVEC [7]) was “restoration of CI loss” and the “AUC normalised to vehicle control” value (HUVEC [7]; COVID-19 patient sample IgM, 0.5 to 5 ng/mL MPA-Br) was “statistically significant increase in normalized CI”. The “cell index difference between cells incubated with serum+AV-001 and serum+vehicle control” value (HUVEC [7]; COVID-19 serum (IgG8, IgM5, IgM6) compared to HD) was “Significant differences”, the “total AUC normalised” value (HUVEC [7]; COVID-19 serum IgG8 and IgM6 (FIG. 10D-E), both AV-001 doses) was “statistically significant increase in CI” and the “total AUC normalised” value (HUVEC [7]; serum HD1, high dose 5 ng/mL) was “statistically significant increase in normalised cell impedance”.
